Two compounds from patent publication US10035792B2, “Resorcinol derivative as HSP90 inhibitor” (priority 2015, dated 2018) can be followed below.

pEC50, pIC50: −log10 of the molar value.

The target of one experiment is HSP90α (Homo sapiens (Human), UniProt P07900). The experiment can be described thus: Fluorescence polarization (FP) HSP90-alpha target binding assay. To be noted: fluorescence polarization; read-out: Target binding ability HSP90α FP IC50. The procedure, abridged:
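Displacement of 5 nM GM-BODIPY from 30 nM HSP90 measured by fluorescence polarization (ex 485/em 535 nm). Buffer: 100 mM Tris-Cl pH 7.4, 20 mM KCl, 6 mM MgCl2, 5 μg/mL BSA. Incubation 12–16 h at 4 °C. Percent inhibition from mP relative to compound-free and tracer-only controls.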

In experiment [1] the test system is human colon cancer cell line HCT116. The experiment is described as follows: Tumor cell growth inhibition, SRB staining, HCT116. In kind it is cell-based. To be noted: HCT-116, HCT116, 72 h. The method, then: The growth inhibition assay of tumor cells was detected by sulforhodamine B (SRB) staining method. The specific steps were as follows: inoculating human colon cancer cell line HCT116 and human lung cancer cell line A549 (purchased from American Type Culture Collection, ATCC) at the logarithmic growth phase into a 96-well micro culture plate at an appropriate concentration of 4000 cells/well, 100 μL for each well; after culturing overnight, adding with the compound at different concentrations (100, 10, 1, 0.1, 0.01 μM) to react for 72 h, wherein triplicate wells were set up for each concentration, and solvent control wells with the corresponding concentration and zero wells without cells were also set up. After the completion of the reaction, the culture medium was removed from the adherent cells, the later was added with 10% (w/v) trichloroacetic acid (100 μL/well) at 4° C. to fix for 1 h, and then washed five times with distilled water. After drying at room temperature, 100 μL of SRB solution (4 mg/mL, dissolved in 1% glacial acetic acid) was added into each well, followed by incubation and staining for 15 min at room temperature. The uncombined SRB was removed by washing five times with 1% glacial acetic acid. After drying at room temperature, 100 μL of 10 mM Tris solution was added into each well, and the optical density (OD) at 515 nm was measured by a […] microplate reader. The inhibition rate of the drug to tumor cell growth was calculated according to the following equation: Inhibition rate (%)=(OD of control well-OD of drug well)/OD of control well×100%. The experiment was repeated twice.
On the technique in general: In SRB staining, fixed cells bind dye roughly in proportion to their protein.

Experiment [2] has as its system human lung cancer cell line A549. The experiment can be described thus: Tumor cell growth inhibition, SRB staining, A549. In kind it is cell-based. The following applies: A549, 72 h. The procedure, abridged:
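Growth inhibition by SRB staining: 4000 cells/well seeded overnight, then compound at 100, 10, 1, 0.1 and 0.01 μM for 72 h in triplicate. Fixed with TCA, OD read at 515 nm. Inhibition rate taken against solvent control; experiment done twice.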

The next experiment concerns A549 tumor cells. The experiment is described as follows: In vivo efficacy, A549 transplantation tumor in nude mice. To be noted: A549 xenograft, 50 mg/kg intravenously twice a week. The method, then:
A549 tumor cells were subcutaneously inoculated in the right armpit of nude mice in 5×10^6 cells/mouse, to form a transplantion tumor. When the volume reached 100-200 mm^3, the animals were randomly divided according to tumor volume, into the negative control group (n=5), the positive control group groups (n=5 in each group), and the experimental groups (n=5 in each group). The experimental groups were respectively injected intravenously with the positive drug Luminespib (50 mg/kg) and compound 1 (50 mg/kg) at different concentrations, twice a week, and the negative control group was administrated an equal amount of solvent simultaneously. The length (A) and width (B) of the tumor were measured twice a week with a vernier caliper, and the tumor volume was calculated according to V=A×B^2/2. Relative tumor volume (RTV) was calculated as follows: RTV=Vt/V0, wherein Vt is the tumor volume at the end of the administration, and V0 is the tumor volume measured before separation and administration. The pharmacodynamic evaluation index of antitumor activity is relative tumor proliferation rate T/C (%), and the calculation formula is: T/C (%)=TRTV/CRTV×100%, wherein TRTV: RTV of the treatment group; CRTV: RTV of the negative control group. Efficacy evaluation criteria: T/C %>60% is inefficient; T/C %≤60% and P<0.05 by statistical treatment is effective. The tumor growth inhibition rate (TGI) was calculated as follows: TGI (%)={[(CVt−CV0)−(TVt−TV0)]/(CVt−CV0)}×100%
Wherein, CVt is the tumor volume of the control group at the end of the administration; CV0 is the tumor volume of the control group before separation and administration; TVt is the tumor volume of the administration group at the end of the administration; and TV0 is the tumor volume of the administration group before separation and administration. The difference in tumor volume between the administration group and the control group was examined by t-test. At the same time, the body weights of nude mice in each group were weighed twice a week to preliminarily evaluate the toxic side effects of the drug.

For orientation: pIC50 means −log10 of the IC50, conventionally taken in molar units. The pEC50 is the EC50 on a negative log10 scale, so that one unit is a factor of ten. In the case of `CCNC(=O)c1noc(-c2cc(C(C)C)c(O)cc2O)c1-c1ccc2c(c1)CCN(C)C2` [Example 1, 5-(2,4-dihydroxyl-5-isopropylphenyl)-N-ethyl-4-(2-methyl-1,2,3,4-tetrahydroisoquinolin-6-yl)isoxazole-3-carboxamide], the pIC50 at HSP90α is over 7.70. Also, the negative logarithm of the EC50 (pEC50) in experiment [1] and in experiment [2] was over 7.70 each time. Further, the “TGI (%) Day 7” value in the experiment on A549 tumor cells (Day 7) amounted to 20%. Further, the “TGI (%) Day 11” value with A549 tumor cells (Day 11) is 40%. In addition, the “TGI (%) Day 14 (stopping administration)” value in the experiment on A549 tumor cells (Day 14) turned out to be 63%. Also, the “TGI (%) Day 17” value in the experiment with A549 tumor cells (Day 17) is listed as 71%. In addition, the “TGI (%) Day 28” value in the experiment on A549 tumor cells (Day 28) is given as 60%.

As for `CCNC(=O)c1noc(-c2cc(C(C)C)c(O)cc2O)c1-c1ccc2c(c1)CCCN2C` [Example 3, 5-(2,4-dihydroxyl-5-isopropylphenyl)-N-ethyl-4-(1-methyl-1,2,3,4-tetrahydroquinolin-6-yl)isoxazole-3-carboxamide], on HSP90α, the negative-log IC50 (pIC50) was 7.00 to 7.70. For the same compound, the pEC50 in experiment [1] is 7.00 to 7.70.
